Literature values in patent US20210267908A1, “PHARMACEUTICAL COMPOSITIONS OF RIVAROXABAN” (MANKIND PHARMA LTD., priority 2020, published 2021).

amount pH-independently soluble in aqueous media (aqueous media at 25° C.): 5-7 mg/L
solubility in organic solvents (organic solvents (e.g. acetone, polyethylene glycol 400)): only slightly soluble
solubility in water and aqueous media (water and aqueous media with pH 1-9): practically insoluble
Compound: O=C(NC[C@H]1CN(c2ccc(N3CCOCC3=O)cc2)C(=O)O1)c1ccc(Cl)s1 [Rivaroxaban, 5-Chloro-N-({(5S)-2-oxo-3-[4-(3-oxo-4-morpholinyl)phenyl]-1,3-oxazolidin-5-yl}methyl)-2-thiophenecarboxamide]
